The values below come from paper PMC5589893, “Identification of Aspergillus fumigatus UDP-Galactopyranose Mutase Inhibitors” (Scientific Reports, 2017).

Data set [1] has as its target T1, A. fumigatus UGM (Aspergillus fumigatus, UniProt Q4W1X2).
T1 construct: 8x His-tag (TEV-cleavable) (cleaved yes); made in house; host or cells: E. coli BL21 Turbo (DE3)
The data set can be described thus: biochemical. The note with it: read-out: Normalized anisotropy (%). It counts as binding. The protocol:
High-throughput screening of the Spectrum Collection library using the FP assay with the ADP-TAMRA[22] probe was performed at the Virginia Tech Center for Drug Discovery Screening Laboratory. 384 well plates (Greiner 784900) were used and the reaction volume was 15 µL using 25 mM HEPES buffer (pH 7.0). For the screening, 30 nM of ADP-TAMRA with 6.7 µM UGM (based on the Bradford assay) and 20 µM of library compound were used, with a final DMSO concentration of 2%. Fluorescence polarization measurements were performed with excitation at 544 nm and emission at 584 nm, using a wavelength cutoff of 570 nm. Anisotropy measurements were performed after 30 and 120 minutes of incubation at 25 °C. Anisotropy values were normalized to the values obtained in the negative control sample: UGM, ADP-TAMRA, and DMSO (high anisotropy values). The positive control consisted of ADP-TAMRA and DMSO (low anisotropy values). The Z prime (Z′) value was determined using equation (1) where, σN,P and μN,P represent the standard deviation and the mean value the of the negative and positive controls respectively.1 Z′=1−3(σN+σP)/|μN−μP|

Data set [2] has as its target T1, A. fumigatus UGM. In words: biochemical. It counts as biochemical. The note with it: for Concentration effect: UPLC; for inhibition at 200 µM: read-out: Inhibition > 50 %; for Inhibition of product formation, concentration dependence: UPLC at 20 and 200 µM compound, 2% DMSO; for enzyme activity at which the IC50 curve plateaued: 3 min. The method, then:
(§1) The reaction was quenched with the addition of 70 µL acetonitrile. […] Samples were run at a flow rate of 0.5 mL/min for 5 min. IC50 was also determined by following NADPH oxidation at 340 nm. […] Data was analyzed using KaleidaGraph software. […] Global fitting was performed with Graphpad Prims 6 software (La Jolla, CA).

Data set [3] has as its target T2, UGM (Aspergillus fumigatus, UniProt Q4W1X2).
T2 construct: 8x His-tag (TEV-cleavable) (cleaved yes); made in house; host or cells: E. coli BL21 Turbo (DE3)
In words: ThermoFAD melting temperature assay. It counts as binding. As to conditions: for Effect on Tm of UGM: 20, 100 and 1000 µM compound, 2% DMSO, 1 mg/mL UGM, vs UGM alone. The protocol: The melting temperature[25] of UGM was determined by measuring the FAD fluorescence as a function of temperature (20–90 °C, 1 °C step) following the reported ThermoFAD procedure. The reaction mix consisted of 20 µL of 1 mg/mL UGM, 2% DMSO in 50 mM potassium phosphate buffer, pH 7.0. As a reference and positive control, the Tm was calculated in the presence DMSO and UDP (10 mM). Different concentrations of inhibitors were added in the range of 0–1 mM at a final DMSO concentration of 2% in the above-mentioned buffer. All experiments were done in triplicate.

Data set [4] concerns the target T1, A. fumigatus UGM. The data set can be described thus: biochemical. It counts as binding. The note with it: for T•∆S / ∆G / ∆H / Kd: ITC, 25 °C; for Kd: read-out: KD. The method, then:
Binding of inhibitors to UGM was measured with an Auto-ITC 200 ITC instrument. UGM was dialyzed in 50 mM potassium phosphate buffer, pH 7.0, for 2 h at 4 °C. In all cases, ligands were dissolved in dialysis buffer and protein and ligand were filtered with a […] membrane prior to loading. […] Inhibitor concentration in the syringe was 2 mM (2% DMSO), except for chrysin where the concentration was 600 µM (4% DMSO). […] Thermodynamic parameters were determined from ITC results using Microcal Origin version 7.0 (OriginLab) with the “ITC custom” add-on installed.

The target in data set [5] is T1, A. fumigatus UGM. In words: ADP-TAMRA fluorescence anisotropy binding and competition assay. As to conditions: for Kd: decrease in anisotropy of UGM (6.7 µM) - ADP-TAMRA (30 nM) complex, read-out: KD, competitive binding against ADP-TAMRA. The method, then:
Our group previously developed a binding assay to identify inhibitors of flavoenzymes that use NADP(H) as substrate. Since UGM also used NADPH for reduction, we determined whether this compound bound to UGM. This was done by taking the ADP-TAMRA[22] chromophore to a final concentration of 30 nM in 25 mM HEPES buffer, pH 7.5, mixed with various concentrations of UGM (0–300 µM, based on Bradford). To determine if the chromophore was binding to the active site of UGM, the competitive binding of UDP (0–1 mM) and NADP^+ (0–10 mM) was calculated by measuring the decrease in anisotropy of the UGM (6.7 µM) - ADP-TAMRA (30 nM) complex. At each concentration of ligand, the solution was incubated for 10 min at room temperature. The sample was excited at 544 nm and the emission recorded at 584 nm using a wavelength cutoff of 570 nm.
A general note: Fluorescence polarisation rises when a labelled molecule tumbles more slowly, as on binding a larger partner.

Data set [6] in a line: Precipitation / solubility observed in inhibition assays. It counts as physicochemical.
Data set [7] addresses T1, A. fumigatus UGM. In words: biochemical. It counts as biochemical. The method, then: as §1
Setting [8] is: inhibition at 200 µM vs 20 µM compound.
The mark [9] stands for this setting: 20 µM compound, 2% DMSO, 30 nM ADP-TAMRA, normalized to negative control.
[10] abbreviates: product formation by UPLC with 200 µM compound, 20 µM UDP-Galf, 10 mM sodium dithionite.

Where two headings read alike, the source gives them in different places.

T1 sequence (Q4W1X2 whole entry): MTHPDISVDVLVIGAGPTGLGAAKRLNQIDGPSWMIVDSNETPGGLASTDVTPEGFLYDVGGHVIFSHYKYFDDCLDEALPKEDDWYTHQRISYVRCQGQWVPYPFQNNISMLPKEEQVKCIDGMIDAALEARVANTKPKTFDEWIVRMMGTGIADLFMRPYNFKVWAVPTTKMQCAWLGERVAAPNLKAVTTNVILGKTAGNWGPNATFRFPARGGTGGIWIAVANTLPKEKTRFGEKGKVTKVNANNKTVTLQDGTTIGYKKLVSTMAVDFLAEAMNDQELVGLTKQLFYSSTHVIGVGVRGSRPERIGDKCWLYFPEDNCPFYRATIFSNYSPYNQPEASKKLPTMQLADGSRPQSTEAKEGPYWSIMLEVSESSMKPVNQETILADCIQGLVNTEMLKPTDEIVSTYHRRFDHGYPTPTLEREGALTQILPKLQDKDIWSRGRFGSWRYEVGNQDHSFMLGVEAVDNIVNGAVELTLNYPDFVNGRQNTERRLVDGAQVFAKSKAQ
T2 sequence (Q4W1X2 whole entry): as above

As a reminder, the inhibition is the change of the read-out against control, counted positive when it falls. With `Cc1ccc(C(=O)Nc2ccc(S(=O)(=O)O)c3cc(S(=O)(=O)O)cc(S(=O)(=O)O)c23)cc1NC(=O)c1cccc(NC(=O)Nc2cccc(C(=O)Nc3cc(C(=O)Nc4ccc(S(=O)(=O)O)c5cc(S(=O)(=O)O)cc(S(=O)(=O)O)c45)ccc3C)c2)c1` [Suramin hexasodium, reference compound], in data set [1], the remaining activity at 20 µM was 41%. In addition, the Concentration effect entry in data set [2] (setting [8]) is “-”. The inhibition at 200 µM in data set [2] was less than 50%.

On to `O=C1C[C@@H](c2ccc(O)cc2)Oc2cc(O)ccc21` [liquiritigenin], for which the “Inhibition of UGM by derivatives” value in data set [2] is listed as “no inhibitory effect”.

Consider `O=C(O)c1cc(/N=N/c2ccc(O)c(C(=O)O)c2)ccc1O` [Olsalazine sodium, reference compound], for which, in data set [1], the remaining activity at 20 µM was 48%. Moreover, the Concentration effect result in data set [2] (setting [8]) is “-”. Besides, the inhibition at 200 µM in data set [2] was less than 50%.

Regarding `Cc1nc(-c2ccc(OCC(C)C)c(C#N)c2)sc1C(=O)O` [Febuxostat, reference compound], the “Effect on Tm of UGM” value in data set [3] is on record as “reduced the Tm”. Also, the remaining activity at 20 µM in data set [1] (setting [9]) stood at 39%. Further, in data set [2], the “Inhibition of product formation, concentration dependence” value (“Inhibition of product formation” below) is reported as “concentration dependent potency” and the inhibition at 200 µM was more than 50%. For the same molecule, the Concentration effect entry in data set [2] (setting [8]) is given as “+”.

In general, Kd refers to a measure of binding affinity in units of concentration. On to `O=c1ccn([C@@H]2O[C@H](COP(=O)(O)OP(=O)(O)O)[C@@H](O)[C@H]2O)c(=O)[nH]1` [UDP, reference compound], for which, in data set [4], the “T•∆S” value amounted to 43.9 ± 1.3 kJ/mol, the “∆G” value was -29.7 ± 0.42 kJ/mol, the “∆H” value was found to be 13.8 ± 0.42 kJ/mol and the Kd turned out to be 5.4 ± 0.8 µM. For the same molecule, the Kd in data set [5] worked out at 10 ± 1 µM. In addition, the “Shift of Tm of UGM” value in data set [3] (10 mM UDP) amounted to 3 °C.

Turning to `O=C(NCCO[N+](=O)[O-])c1cccnc1` [Nicorandil, reference compound], the remaining activity at 20 µM in data set [1] was 27%. For the same molecule, the Concentration effect entry in data set [2] (setting [8]) is “-”. Further, the inhibition at 200 µM in data set [2] is less than 50%.

With `O=C(O)C1=CC(=C(c2ccc(O)c(C(=O)O)c2)c2ccc(O)c(C(=O)O)c2)C=CC1=O` [Aurin tricarboxylic acid], the remaining activity at 20 µM in data set [1] (setting [9]) was found to be 14%. Further, the Concentration effect entry in data set [2] (setting [8]) is recorded as “-”. The inhibition at 200 µM in data set [2] (setting [10]) is less than 50%.

Consider `O=C1C[C@H](c2ccc(O)cc2)Oc2cc(O)cc(O)c21` [R enantioniomer of naringenin, (2 R)-naringenin], for which the “Inhibition of UGM by derivatives” value in data set [2] was “no inhibition”.

In the case of `N#CC(c1ccc(Cl)cc1)c1c(Cl)cc(-n2ncc(=O)[nH]c2=O)cc1Cl` (stereo not shown) [Diclazuril, reference compound], the “Effect on Tm of UGM” value in data set [3] is recorded as “reduced the Tm”. The remaining activity at 20 µM in data set [1] (setting [9]) turned out to be 37%. For the same molecule, the “Inhibition of product formation” value in data set [2] was “concentration dependent potency”. In addition, the Concentration effect entry in data set [2] (setting [8]) was “+”. For the same molecule, in data set [2] (setting [10]), the inhibition at 200 µM was more than 50%.

On to `Nc1ncnc2c1ncn2[C@@H]1O[C@H](COP(=O)(O)OP(=O)(O)O)[C@@H](O)[C@H]1O` [ADP], for which, in data set [5], the Kd came to 124 ± 16 µM.

For `O=c1c(O)c(-c2ccc(O)cc2)oc2cc(O)cc(O)c12` [Kaempferol], in data set [5] (30 nM ADP-TAMRA), the “anisotropy at which the KD curve plateaued” value is given as “around 50%”. In addition, in data set [1] (setting [9]), the remaining activity at 20 µM is 38%. In addition, in data set [2], the “enzyme activity at which the IC50 curve plateaued” value is “around 70%”. In addition, the Concentration effect entry in data set [2] (setting [8]) is “+”. Besides, in data set [2] (setting [10]), the inhibition at 200 µM was more than 50%.

`NC(=O)c1ccc[n+]([C@@H]2O[C@H](COP(=O)([O-])OP(=O)(O)OC[C@H]3O[C@@H](n4cnc5c(N)ncnc54)[C@H](OP(=O)(O)O)[C@@H]3O)[C@@H](O)[C@H]2O)c1` [NADP^+, reference compound]: in data set [4], the “T•∆S” value is -35.1 ± 2.9 kJ/mol, the “∆G” value was -19.2 ± 1.3 kJ/mol, the “∆H” value was -54.4 ± 1.3 kJ/mol and the Kd was 413 ± 24 µM. In addition, the Kd in data set [5] came to 92 ± 13 µM.

In the case of `CS(=O)(=O)Nc1ccc([N+](=O)[O-])cc1Oc1ccccc1` [Nimesulide, reference compound], the remaining activity at 20 µM in data set [1] came out at 28%. Further, the Concentration effect entry in data set [2] (setting [8]) is “-”. Also, the inhibition at 200 µM in data set [2] was less than 50%.

Regarding `COc1cc(C)c(C(=O)Oc2cc(C)c(C(=O)O)c(O)c2C)c(OC)c1C` [Diffractaic acid], the remaining activity at 20 µM in data set [1] (setting [9]) came out at 37%. Besides, in data set [2] (setting [8]), the Concentration effect entry is “-”. The inhibition at 200 µM in data set [2] (setting [10]) is less than 50%.

On to `O=c1oc2c(O)c(O)cc3c(=O)oc4c(O)c(O)cc1c4c23` [Ellagic acid], for which the “Solubility” value in data set [6] was “low solubility”. Moreover, the remaining activity at 20 µM in data set [1] (setting [9]) turned out to be 50%. The Concentration effect entry in data set [2] (ellagic acid assayed at 6 and 12 µM with 2% DMSO due to low solubility) was “-”.

What is called IC50 is the concentration that inhibits the measured activity by half. High values mean lower potency, low ones higher potency. As to `O=c1cc(-c2ccccc2)oc2cc(O)cc(O)c12` [Chrysin], in data set [4], the “Binding to UGM detected by ITC” value is “nor was binding detected”. Also, the “Effect on Tm of UGM” value in data set [3] is “no effect on Tm”. Also, the “Concentration above which compound precipitated” value in data set [6] (with 2% DMSO) is reported as “above 100 µM”. Also, the IC50 in data set [7] was more than 1000 µM. Further, the “Inhibition of NADPH oxidation” value in data set [7] (absence of UDP-Galf) is given as “did not inhibit NADPH oxidation”. Also, the remaining activity at 20 µM in data set [1] (setting [9]) was 48%. In addition, in data set [2], the IC50 came to 24 ± 4 µM; the “Inhibition of product formation” value is “concentration dependent potency”; the inhibition at 200 µM is more than 50%. Also, the “enzyme activity at which the IC50 curve plateaued” value in data set [2] (UPLC IC50 curve saturating below full inhibition (chrysin at ~30 µM)) is on record as ~ 35%. The Concentration effect entry in data set [2] (setting [8]) is reported as “+”.
